Source: US11446351B2, “Composition for treating one or more estrogen related diseases” (LIFEARC, priority 2018, dated 2022)
Structures can show the parent of a compound that is named as a salt. Where a SMILES comes first, the peptide text is derived from it. [ ]: non-standard residue; d: D form. dPhe(4-Cl) = N[C@H](Cc1ccc(Cl)cc1)C(=O)O; d2Nal = N[C@H](Cc1ccc2ccccc2c1)C(=O)O; d(hCit) = NC(=O)NCCCC[C@@H](N)C(=O)O; Lys(iPr) = CC(C)NCCCC[C@H](N)C(=O)O; d3Pal = N[C@H](Cc1cccnc1)C(=O)O

Experiments:
Format in all cases: in vivo, human
[1] = Phase I study (Example 2): Teverelix TFA concentrations in serum
Description: (§1) Two formulations comprising either 45 mg or 30 mg Teverelix TFA and a placebo formulations, were prepared as described in example 1, i.e. the following formulations were prepared
(§2) The respective formulations were each injected subcutaneous (s.c.) to 24 subjects—12 per group i.e. 8 on active drug 4 on placebo per group. All subjects received a dose on either the active or placebo s.c. on day 3±1 of the menstrual cycle, i.e. • A single dosage of formulation B (45 mg Teverelix TFA) administered s.c. on day 3±1 of the menstrual cycle, • A single dosages of formulation C (30 mg Teverelix TFA) administered s.c. on day 3±1 of the menstrual cycle, and • A single dosage of formulation B placebo or formulation C placebo administered s.c. on day 3±1 of the menstrual cycle.
(§3) The concentration of Teverelix TFA, and Estradiol was measured over a period of 63 days. Additionally, the effect on Teverelix TFA on two bone markers was measured.
The mean Teverelix TFA concentration in the serum of the respective subjects was measured.

women = assay: Phase I study (Example 2): estradiol concentrations in serum
Description: as §1, §2, §3
The mean estradiol concentration in the respective subjects was measured as described in example 1.

[2] = Phase I trial (Example 1): pharmacokinetics, total systemic exposure of Teverelix
Description: The Teverelix TFA formulations were manufactured as followed. 0.8 ml or 0.6 ml 5% mannitol were added to the relevant dosage of 60 or 45 mg of the LHRH antagonist Teverelix® trifluoroacetate, respectively. The mixture was stirred using vortex during one minute providing two dosage formulations of Teverelix TFA in a flowing milky pearly microcrystalline aqueous suspensions. The suspensions are made of microcrystals of about 10 μm length. Corresponding placebo formulations, without Teverelix TFA was also prepared
A phase I clinical trial with formulation A and B (and placebo) was conducted in order to evaluate the pharmacokinetics, pharmacodynamics, safety and tolerability of Teverelix TFA.
The formulations were each injected subcutaneous (s.c.) as follows: • A single dosage of formulation A (60 mg Teverelix TFA) administered s.c. on day 3±1 of the menstrual cycle, to 8 healthy female subjects • A single dosage of formulation A placebo was administered s.c. to on day 3±1 of the menstrual cycle, to 4 healthy female subjects • Two dosages of formulation B (45 mg Teverelix TFA) administered s.c. to 8 healthy female subjects. The first dosage on day 3±1 of the menstrual cycle and a second dosage administered on day 10±1 of the menstrual cycle, and • two dosages of formulation B placebo was administered s.c. to 4 healthy female subjects. The first dosage on day 3±1 of the […] menstrual cycle and a second dosage administered on day 10±1 of the menstrual cycle.

[3] = 60 mg single s.c. (Treatment Group 1)
[4] = 2 × 45 mg s.c. (Treatment Group 2)

## CC(=O)N[C@H](Cc1ccc2ccccc2c1)C(=O)N[C@H](Cc1ccc(Cl)cc1)C(=O)N[C@H](Cc1cccnc1)C(=O)N[C@@H](CO)C(=O)N[C@@H](Cc1ccc(O)cc1)C(=O)N[C@H](CCCCNC(N)=O)C(=O)N[C@@H](CC(C)C)C(=O)N[C@@H](CCCCNC(C)C)C(=O)N1CCC[C@H]1C(=O)N[C@H](C)C(N)=O [Teverelix TFA, N-Ac-d-Nal^1,d-pCl-Phe^2,d-Pal^3,d-(Hci)^6,Lys(iPr)^8,d-Ala^10 trifluoroacetate] (Ac-[d2Nal][dPhe(4-Cl)][d3Pal]SY[d(hCit)]L[Lys(iPr)]P[dA]-NH2; C-terminus assumed)
[1]; 30 mg dose
  period with quantifiable levels in serum: 42 days
[1]; 30 mg s.c., 0 h
  Mean Teverelix TFA concentration in serum: 0.00 ng/L
[1]; 45 mg dose
  period with quantifiable levels in serum: 64 days
[1]; 45 mg s.c., 0 h
  Mean Teverelix TFA concentration in serum: 0.00 ng/L
[1]; 30 + 45 mg groups, 0 h
  Mean Teverelix TFA concentration in serum: 0.00 ng/L
[1]; 30 + 45 mg groups, 0.5 h
  Mean Teverelix TFA concentration in serum: 5.79 ng/L
women; 30 mg dosage, day 0 (baseline)
  Mean Estradiol concentration in serum: 27.7 ng/L
women; 30 mg dosage, day 0.25
  Mean Estradiol concentration in serum: 16.1 ng/L
women; 30 mg dosage, day 0.5
  Mean Estradiol concentration in serum: 13.8 ng/L
women; 30 mg dosage, day 1
  Mean Estradiol concentration in serum: 12.3 ng/L
women; 30 mg dosage, day 2 (nadir)
  Mean Estradiol concentration in serum: 11.2 ng/L
women; 30 mg dosage, day 3
  Mean Estradiol concentration in serum: 13.7 ng/L
women; 30 mg dosage, day 4
  Mean Estradiol concentration in serum: 19.4 ng/L
women; 30 mg dosage, day 5
  Mean Estradiol concentration in serum: 22.6 ng/L
women; 30 mg dosage, day 6
  Mean Estradiol concentration in serum: 24.4 ng/L
women; 30 mg dosage, day 7
  Mean Estradiol concentration in serum: 31.0 ng/L
women; 30 mg dosage, day 9
  Mean Estradiol concentration in serum: 50.2 ng/L
women; 30 mg dosage, day 11
  Mean Estradiol concentration in serum: 46.5 ng/L
women; 30 mg dosage, day 13
  Mean Estradiol concentration in serum: 59.9 ng/L
women; 30 mg dosage, day 15
  Mean Estradiol concentration in serum: 36.3 ng/L
women; 30 mg dosage, day 17
  Mean Estradiol concentration in serum: 38.7 ng/L
women; 30 mg dosage, day 19
  Mean Estradiol concentration in serum: 51.4 ng/L
women; 30 mg dosage, day 21
  Mean Estradiol concentration in serum: 64.5 ng/L
women; 30 mg dosage, day 28
  Mean Estradiol concentration in serum: 67.4 ng/L
women; 30 mg dosage, day 35
  Mean Estradiol concentration in serum: 60.7 ng/L
women; 30 mg dosage, day 42
  Mean Estradiol concentration in serum: 58.6 ng/L
women; 30 mg dosage, day 49
  Mean Estradiol concentration in serum: 60.5. ng/L
women; 30 mg dosage, day 56
  Mean Estradiol concentration in serum: 105.1 ng/L
women; 30 mg dosage, day 63
  Mean Estradiol concentration in serum: 90.7 ng/L
women; 30 mg dose
  mean estradiol level over the prolonged period: 40.5 pg/mL
women; 30 mg group
  day on which estradiol levels returned to baseline: ≤ 8 days
  women who ovulated during the study period (based on peak estradiol levels): one of the 8
women; 45 mg dosage, day 0 (baseline)
  Mean Estradiol concentration in serum: 21.5 ng/L
women; 45 mg dosage, day 0.25
  Mean Estradiol concentration in serum: 16.3 ng/L
women; 45 mg dosage, day 0.5
  Mean Estradiol concentration in serum: 11.5 ng/L
women; 45 mg dosage, day 1
  Mean Estradiol concentration in serum: 8.4 ng/L
women; 45 mg dosage, day 2 (nadir)
  Mean Estradiol concentration in serum: 7.5 ng/L
women; 45 mg dosage, day 3
  Mean Estradiol concentration in serum: 11.4 ng/L
women; 45 mg dosage, day 4
  Mean Estradiol concentration in serum: 12.3 ng/L
women; 45 mg dosage, day 5
  Mean Estradiol concentration in serum: 13.3 ng/L
women; 45 mg dosage, day 6
  Mean Estradiol concentration in serum: 17.5 ng/L
women; 45 mg dosage, day 7
  Mean Estradiol concentration in serum: 17.8 ng/L
women; 45 mg dosage, day 9
  Mean Estradiol concentration in serum: 22.6 ng/L
women; 45 mg dosage, day 11
  Mean Estradiol concentration in serum: 36.4 ng/L
women; 45 mg dosage, day 13
  Mean Estradiol concentration in serum: 54.9 ng/L
women; 45 mg dosage, day 15
  Mean Estradiol concentration in serum: 91.6 ng/L
women; 45 mg dosage, day 17
  Mean Estradiol concentration in serum: 105.9 ng/L
women; 45 mg dosage, day 19
  Mean Estradiol concentration in serum: 115.1 ng/L
women; 45 mg dosage, day 21
  Mean Estradiol concentration in serum: 126.1 ng/L
women; 45 mg dosage, day 28
  Mean Estradiol concentration in serum: 80.9 ng/L
women; 45 mg dosage, day 35
  Mean Estradiol concentration in serum: 41.6 ng/L
women; 45 mg dosage, day 42
  Mean Estradiol concentration in serum: 67.4 ng/L
women; 45 mg dosage, day 49
  Mean Estradiol concentration in serum: 92.4 ng/L
women; 45 mg dosage, day 56
  Mean Estradiol concentration in serum: 104.9 ng/L
women; 45 mg dosage, day 63
  Mean Estradiol concentration in serum: 47.1 ng/L
women; 45 mg dose
  mean estradiol level over the prolonged period: 49.0 pg/mL
women; 45 mg group
  day on which estradiol levels returned to baseline: ≤ 9 days
  women who ovulated during the study period (based on peak estradiol levels): 5 of the 8
women; 30 + 45 mg groups, day 0 (baseline)
  Mean Estradiol concentration in serum: 24.6 ng/L
women; 30 + 45 mg groups, day 0.25
  Mean Estradiol concentration in serum: 16.2 ng/L
women; 30 + 45 mg groups, day 0.5
  Mean Estradiol concentration in serum: 12.7 ng/L
women; 30 + 45 mg groups, day 1
  Mean Estradiol concentration in serum: 10.4 ng/L
women; 30 + 45 mg groups, day 2
  Mean Estradiol concentration in serum: 9.4 ng/L
women; 30 + 45 mg groups, day 3
  Mean Estradiol concentration in serum: 12.6 ng/L
women; 30 + 45 mg groups, day 4
  Mean Estradiol concentration in serum: 15.8 ng/L
women; 30 + 45 mg groups, day 5
  Mean Estradiol concentration in serum: 17.9 ng/L
women; 30 + 45 mg groups, day 6
  Mean Estradiol concentration in serum: 20.9 ng/L
women; 30 + 45 mg groups, day 7
  Mean Estradiol concentration in serum: 24.4 ng/L
women; 30 + 45 mg groups, day 9
  Mean Estradiol concentration in serum: 36.4 ng/L
women; 30 + 45 mg groups, day 11
  Mean Estradiol concentration in serum: 41.8 ng/L
women; 30 + 45 mg groups, day 13
  Mean Estradiol concentration in serum: 57.2 ng/L
women; 30 + 45 mg groups, day 15
  Mean Estradiol concentration in serum: 64.0 ng/L
women; 30 + 45 mg groups, day 17
  Mean Estradiol concentration in serum: 72.3 ng/L
women; 30 + 45 mg groups, day 19
  Mean Estradiol concentration in serum: 83.3 ng/L
women; 30 + 45 mg groups, day 21
  Mean Estradiol concentration in serum: 95.3 ng/L
women; 30 + 45 mg groups, day 28
  Mean Estradiol concentration in serum: 74.1 ng/L
women; 30 + 45 mg groups, day 35
  Mean Estradiol concentration in serum: 51.1 ng/L
women; 30 + 45 mg groups, day 42
  Mean Estradiol concentration in serum: 63.0 ng/L
women; 30 + 45 mg groups, day 49
  Mean Estradiol concentration in serum: 76.4 ng/L
women; 30 + 45 mg groups, day 56
  Mean Estradiol concentration in serum: 105.0 ng/L
women; 30 + 45 mg groups, day 63
  Mean Estradiol concentration in serum: 68.9 ng/L
[2]; [3]
  AUC(0−cq), Geometric Mean: 1.592 µM·h
  AUC(0−t), Geometric Mean: 1.907 µM·h
  CmaxInit1, Geometric Mean: 10.9 nM
  CmaxLate, Geometric Mean: 2.63 nM
[2]; [4]
  AUC(0−cq), Geometric Mean: 2.323 µM·h
  AUC(0−t), Geometric Mean: 2.833 µM·h
  CmaxInit1, Geometric Mean: 6.03 nM
  CmaxInit2, Geometric Mean: 7.03 nM
  CmaxLate, Geometric Mean: 3.63 nM
[2]; s.c., healthy female subjects
  total systemic exposure, two injections of 45 mg one week apart compared with a single 60 mg injection: approximately 1.5 fold
